Laboratory results taken from patent US20220033407A1, “N-(pyridin-2-ylsulfonyl)cyclopropanecarboxamide Derivatives and their Use in the Treatment of Disease” (NOVARTIS AG, priority 2018, published 2022).
pEC50: −log10 of the molar value.

Target: T1, delF508-CFTR-HRP (Homo sapiens, UniProt P13569, DEL508-508)
T1 construct: expressed in transfected cells
Test: Measurement of delF508-CFTR-HRP surface expression in CFBE41o- cells (HRP luminescence);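 on DelF508-CFTR-HRP Amax %: percent efficacy relative to a reference CFTR corrector compound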
Assay type: cell-based
Conditions: for Emax: CFBE41o-, read-out: DelF508-CFTR-HRP Amax %; for pEC50: mean of at least two replicates
Excerpt: Measurement of delF508-CFTR-HRP Surface Expression in CFBE41o-Cells
This assay quantifies the cell surface expressions of the mutant CFTR channel using an extracellular HRP tag.
A cellular assay was developed to measure surface expression of horseradish peroxidase (HRP) tagged delF508-CFTR in the human bronchial epithelial immortalized CFBE41o-cell line (Phuan, P. W., et al, (2014) Molecular Pharmacology 86:42-51). Specifically, the HRP sequence was inserted into the fourth extracellular loop of delF508-CFTR and stably expressed in CFBE41o-cells. Cells were seeded in 384 well plate at a density of 5000 cells/well and incubated at 37° C. for 12 to 24 hours in medium (Gibco MEM #11095, 10% FBS, 10 mM HEPES, […], 200 μg/mL G418, 3 μg/mL Puromycin). The delF508-CFTR-HRP expression was induced with 500 ng/mL doxycycline (Sigma D-9891, dissolved in H2O and sterile filtered) in medium and the cells were incubated at 37° C. for 48 h. Old medium was removed and fresh medium was added containing 500 ng/mL doxycycline and unknown test compound at required test concentration in DMSO, not exceeding 0.5% final DMSO concentration. The highest concentration tested was 10 μM with a 10-point concentration response curve using a 3-fold dilution. After addition of compounds, the cells were incubated for 24 h at 37° C. On the final day, cells were washed four times in PBS containing 1 mM MgCl2 and 0.1 mM CaCl2. HRP-Substrate (SuperSignal ELISA Pico, Fisher #37069) 20 μl/well was added and the luminescence signal was determined (Viewlux, Perkin Elmer). Light was emitted upon addition of exogenous HRP-Substrate only when delF508-CFTR-HRP reached the cell surface and the HRP tag was accessible to the HRP-Substrate (note: HRP-Substrate cannot cross the lipid bilayer to reach delF508-CFTR-HRP misfolded within the cell).
The median activity for the lowest concentration of the compounds on each assay plate was calculated and this value was used to normalize the signal for each well on the respective plate. Three replicates at each concentrations for every compound were run to determine one EC50. The median value was determined and used to calculate compound activities as described below. Effective half maximal values (EC50) were calculated for each compound by performing logistic regression on measured dose-response data points using the equation: […]
where “Y” is the observed activity, “Bottom” is the lowest observed value, “Top” is the highest observed value, and the “Hill coefficient” gives the largest absolute value of the slope. The curve fitting is carried out by a curve fitting program implemented at GNF using Matlab (Mathworks). The dose response curves also were used to calculate Fold Change (FC) using the equation: […]
Compound efficacy relative to the reference compound 3-(6-(1-(2,2-difluorobenzo[d][1,3]dioxol-5-yl)cyclopropane-1-carboxamido)-3-methylpyridin-2-yl)benzoic acid was determined using the following formula: […]

T1 sequence (P13569 with tags, fused parts or gaps DEL508-508): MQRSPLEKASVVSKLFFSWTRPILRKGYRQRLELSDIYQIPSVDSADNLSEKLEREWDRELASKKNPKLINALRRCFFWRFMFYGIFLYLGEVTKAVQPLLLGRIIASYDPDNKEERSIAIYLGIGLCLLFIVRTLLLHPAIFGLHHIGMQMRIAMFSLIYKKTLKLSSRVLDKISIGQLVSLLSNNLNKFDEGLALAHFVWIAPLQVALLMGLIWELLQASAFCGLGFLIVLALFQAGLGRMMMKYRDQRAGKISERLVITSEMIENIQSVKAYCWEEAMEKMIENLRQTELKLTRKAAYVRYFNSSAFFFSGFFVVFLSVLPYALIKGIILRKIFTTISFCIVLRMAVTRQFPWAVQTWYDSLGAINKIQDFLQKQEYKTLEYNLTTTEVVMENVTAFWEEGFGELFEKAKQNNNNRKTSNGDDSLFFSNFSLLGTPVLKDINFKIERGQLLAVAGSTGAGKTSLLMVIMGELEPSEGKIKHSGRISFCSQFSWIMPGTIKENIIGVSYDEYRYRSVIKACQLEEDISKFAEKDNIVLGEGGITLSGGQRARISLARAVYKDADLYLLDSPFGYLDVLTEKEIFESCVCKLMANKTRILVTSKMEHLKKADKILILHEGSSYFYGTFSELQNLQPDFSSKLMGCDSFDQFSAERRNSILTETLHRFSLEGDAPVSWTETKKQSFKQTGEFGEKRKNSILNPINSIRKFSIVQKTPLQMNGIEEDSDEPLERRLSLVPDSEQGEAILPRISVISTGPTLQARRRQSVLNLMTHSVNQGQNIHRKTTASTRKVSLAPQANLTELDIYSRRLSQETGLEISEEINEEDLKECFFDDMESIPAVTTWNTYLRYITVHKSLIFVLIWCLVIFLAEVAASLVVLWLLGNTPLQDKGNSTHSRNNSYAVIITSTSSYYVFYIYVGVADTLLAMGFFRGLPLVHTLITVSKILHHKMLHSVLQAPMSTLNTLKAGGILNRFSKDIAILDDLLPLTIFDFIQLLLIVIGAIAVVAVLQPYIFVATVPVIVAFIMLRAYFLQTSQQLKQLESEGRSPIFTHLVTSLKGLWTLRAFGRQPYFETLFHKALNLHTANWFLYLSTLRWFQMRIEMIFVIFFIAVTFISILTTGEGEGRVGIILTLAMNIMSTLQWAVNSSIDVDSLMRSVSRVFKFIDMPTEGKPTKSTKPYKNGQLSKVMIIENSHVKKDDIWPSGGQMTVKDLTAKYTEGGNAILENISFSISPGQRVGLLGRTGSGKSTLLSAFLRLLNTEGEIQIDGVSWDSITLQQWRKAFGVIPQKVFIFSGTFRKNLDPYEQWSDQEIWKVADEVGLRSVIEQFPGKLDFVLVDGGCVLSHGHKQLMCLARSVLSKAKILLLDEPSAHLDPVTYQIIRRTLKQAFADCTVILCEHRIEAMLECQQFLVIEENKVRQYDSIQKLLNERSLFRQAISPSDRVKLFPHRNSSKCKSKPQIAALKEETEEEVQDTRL

SMILES	Emax [%]	pEC50
Cc1ccc(OC2CCCC2)c(OC2(C(=O)NS(=O)(=O)c3cccc(N4CCC(C)(C#N)CC4)n3)CC2)c1 [Example 6-2, N-((6-(4-cyano-4-methylpiperidin-1-yl)pyridin-2-yl)sulfonyl)-1-(2-(cyclopentyloxy)-5-methylphenoxy)cyclopropanecarboxamide]	289	5.66
Cc1ccc(OC2CCCCC2)c(OC2(C(=O)NS(=O)(=O)c3cccc(N4CC[C@H](O)C4)n3)CC2)c1 [Example 6-3, (S)-1-(2-(Cyclohexyloxy)-5-methylphenoxy)-N-((6-(3-hydroxypyrrolidin-1-yl)pyridin-2-yl)sulfonyl)cyclopropane-1-carboxamide]	507	5.56
Cc1ccc(OC2CCC(C(C)(C)C)CC2)c(OC2(C(=O)NS(=O)(=O)c3cccc(N4CC[C@H](O)C4)n3)CC2)c1 (stereo partly drawn) [Example 6-4, (S)-1-(2-((4-(tert-butyl)cyclohexyl)oxy)-5-methylphenoxy)-N-((6-(3-hydroxypyrrolidin-1-yl)pyridin-2-yl)sulfonyl)cyclopropanecarboxamide]	526	6.48
Cc1ccc(OC2CCC(C(C)(C)C)CC2)c(OC2(C(=O)NS(=O)(=O)c3cccc(N4CCC(C)(O)CC4)n3)CC2)c1 (centres unmarked) [Example 6-5, 1-(2-((4-(tert-butyl)cyclohexyl)oxy)-5-methylphenoxy)-N-((6-(4-hydroxy-4-methylpiperidin-1-yl)pyridin-2-yl)sulfonyl)cyclopropanecarboxamide]	519	6.43
Cc1ccc(OC2CCC(C(C)(C)C)CC2)c(OC2(C(=O)NS(=O)(=O)c3cccc(N4CCC(O)(C(F)(F)F)CC4)n3)CC2)c1 (centres unmarked) [Example 6-8, 1-(2-((4-(tert-butyl)cyclohexyl)oxy)-5-methylphenoxy)-N-((6-(4-hydroxy-4-(trifluoromethyl)piperidin-1-yl)pyridin-2-yl)sulfonyl)cyclopropanecarboxamide]	428	6.68
Cc1ccc(OC2CCCC2)c(OC2(C(=O)NS(=O)(=O)c3cccc(N4CC[C@H](O)C4)n3)CC2)c1 [Example 6-13, (S)-1-(2-(cyclopentyloxy)-5-methylphenoxy)-N-((6-(3-hydroxypyrrolidin-1-yl)pyridin-2-yl)sulfonyl)cyclopropanecarboxamide]	285	5.59
O=C(NS(=O)(=O)c1cccc(N2CC[C@H](O)C2)n1)C1(Oc2cc(Cl)ccc2OC2CCCC2)CC1 [Example 6-14, (S)-1-(5-chloro-2-(cyclopentyloxy)phenoxy)-N-((6-(3-hydroxypyrrolidin-1-yl)pyridin-2-yl)sulfonyl)cyclopropanecarboxamide]	276	5.49
Cc1ccc(OCC(C)C)c(OC2(C(=O)NS(=O)(=O)c3cccc(N4CC[C@H](O)C4)n3)CC2)c1 [Example 6-15, (S)—N-((6-(3-hydroxypyrrolidin-1-yl)pyridin-2-yl)sulfonyl)-1-(2-isobutoxy-5-methylphenoxy)cyclopropanecarboxamide]	215	5.53

More lines, now with the values ahead:

Emax [%]	pEC50	SMILES
840	6.36	CC(C)(C)C1(O)CCN(c2cccc(S(=O)(=O)NC(=O)C3(Oc4cc(Cl)ccc4C4CC5(CCC5)C4)CC3)n2)CC1 [Example 7-4, N-((6-(4-(tert-butyl)-4-hydroxypiperidin-1-yl)pyridin-2-yl)sulfonyl)-1-(5-chloro-2-(spiro[3.3]heptan-2-yl)phenoxy)cyclopropanecarboxamide]
493	6.06	O=C(NS(=O)(=O)c1cccc(N2CC3(CCO3)C2)n1)C1(Oc2cc(Cl)ccc2C2CC3(CCC3)C2)CC1 [Example 7-5, N-((6-(1-oxa-6-azaspiro[3.3]heptan-6-yl)pyridin-2-yl)sulfonyl)-1-(5-chloro-2-(spiro[3.3]heptan-2-yl)phenoxy)cyclopropanecarboxamide]
408	6.07	O=C(NS(=O)(=O)c1cccc(N2CCC3(CCCO3)CC2)n1)C1(Oc2cc(Cl)ccc2C2CC3(CCC3)C2)CC1 [Example 7-6, N-((6-(1-oxa-8-azaspiro[4.5]decan-8-yl)pyridin-2-yl)sulfonyl)-1-(5-chloro-2-(spiro[3.3]heptan-2-yl)phenoxy)cyclopropanecarboxamide]
357	6.23	CC1(NC(=O)OC(C)(C)C)CCN(c2cccc(S(=O)(=O)NC(=O)C3(Oc4cc(Cl)ccc4C4CC5(CCC5)C4)CC3)n2)CC1 [Example 7-7, Tert-butyl (1-(6-(N-(1-(5-chloro-2-(spiro[3.3]heptan-2-yl)phenoxy)cyclopropanecarbonyl)sulfamoyl)pyridin-2-yl)-4-methylpiperidin-4-yl)carbamate]
381	5.91	O=C(NS(=O)(=O)c1cccc(N2CC3CCC(C2)O3)n1)C1(Oc2cc(Cl)ccc2C2CC3(CCC3)C2)CC1 [Example 7-16, N-((6-(8-Oxa-3-azabicyclo[3.2.1]octan-3-yl)pyridin-2-yl)sulfonyl)-1-(5-chloro-2-(spiro[3.3]heptan-2-yl)phenoxy)cyclopropane-1-carboxamide]
350	5.98	O=C(NS(=O)(=O)c1cccc(N2CC[C@@H](O)C2)n1)C1(Oc2cc(Cl)ccc2C2CC3(CCC3)C2)CC1 [Example 7-19, (R)-1-(5-Chloro-2-(spiro[3.3]heptan-2-yl)phenoxy)-N-((6-(3-hydroxypyrrolidin-1-yl)pyridin-2-yl)sulfonyl)cyclopropane-1-carboxamide]
280	6.27	O=C(NS(=O)(=O)c1cccc(N2CC[C@H](O)C2)n1)C1(Oc2cc(Cl)ccc2C2CC3(CCC3)C2)CCCC1 [Example 7-20, (S)-1-(5-Chloro-2-(spiro[3.3]heptan-2-yl)phenoxy)-N-((6-(3-hydroxypyrrolidin-1-yl)pyridin-2-yl)sulfonyl)cyclopentane-1-carboxamide]
366	6.22	O=C(NS(=O)(=O)c1cccc(N2CCC(O)(C(F)(F)F)CC2)n1)C1(Oc2cc(Cl)ccc2N2CC3(CCCCC3)C2)CC1 [Example 9-2, 1-(5-chloro-2-(2-azaspiro[3.5]nonan-2-yl)phenoxy)-N-((6-(4-hydroxy-4-(trifluoromethyl)piperidin-1-yl)pyridin-2-yl)sulfonyl)cyclopropanecarboxamide]
588	5.87	O=C(NS(=O)(=O)c1cccc(N2C[C@H]3CC[C@@H](O)[C@H]3C2)n1)C1(Oc2cc(Cl)ccc2N2CC3(CCCCC3)C2)CC1 [Example 9-3, 1-(5-chloro-2-(2-azaspiro[3.5]nonan-2-yl)phenoxy)-N-((6-((3aR,4R,6aS)-4-hydroxyhexahydrocyclopenta[c]pyrrol-2(1H)-yl)pyridin-2-yl)sulfonyl)cyclopropane-1-carboxamide]
835	6.12	CC1(C)CCCN(c2ccc(Cl)cc2OC2(C(=O)NS(=O)(=O)c3cccc(N4CC[C@H](O)C4)n3)CC2)C1 [Example 9-4, (S)-1-(5-chloro-2-(3,3-dimethylpiperidin-1-yl)phenoxy)-N-((6-(3-hydroxypyrrolidin-1-yl)pyridin-2-yl)sulfonyl)cyclopropanecarboxamide]
388	6.04	O=C(NS(=O)(=O)c1cccc(N2CC[C@@H](O)C2)n1)C1(Oc2cc(Cl)ccc2N2CC3(CCCCC3)C2)CC1 [Example 9-6, (R)-1-(5-Chloro-2-(2-azaspiro[3.5]nonan-2-yl)phenoxy)-N-((6-(3-hydroxypyrrolidin-1-yl)pyridin-2-yl)sulfonyl)cyclopropanecarboxamide]
204	5.39	O=C(NS(=O)(=O)c1cccc(N2CC[C@H](O)C2)n1)C1(Oc2cc(Cl)ccc2N2CC3(CCCCO3)C2)CC1 [Example 9-8, (S)-1-(5-Chloro-2-(5-oxa-2-azaspiro[3.5]nonan-2-yl)phenoxy)-N-((6-(3-hydroxypyrrolidin-1-yl)pyridin-2-yl)sulfonyl)cyclopropanecarboxamide]
	5.78	O=C(NS(=O)(=O)c1cccc(N2CC[C@H](O)C2)n1)C1(Oc2cc(Cl)ccc2N2CCC3(CC2)CC3)CC1 [Example 9-9, (S)-1-(5-Chloro-2-(6-azaspiro[2.5]octan-6-yl)phenoxy)-N-((6-(3-hydroxypyrrolidin-1-yl)pyridin-2-yl)sulfonyl)cyclopropanecarboxamide]
